PMC6063800 (Peptides, 2018)
Where a name gives a salt, the structure may show the parent alone. No end group written: not given here.

Key:
[1] = test system: Pseudomonas aeruginosa PAO1; assay: microbe, parasite or virus in culture; format: cell-based; settings: PAO1, 20 h
[2] = test system: Klebsiella pneumoniae ATCC 13883; assay: microbe, parasite or virus in culture; format: cell-based; settings: for MIC, KP: ATCC 13883, 20 h
Bacillus subtilis 168 = assay: microbe, parasite or virus in culture; format: cell-based; settings: for MIC, BS: 168, 20 h
[3] = test system: Candida albicans ATCC 10231; format: cell-based; settings: ATCC 10231, 48 h
[4] = test system: Staphylococcus aureus USA300; assay: microbe, parasite or virus in culture; format: cell-based; settings: for MIC, SA: USA300, 20 h
[5] = test system: Human red blood cells (hRBC); assay: Hemolytic assay; format: cell-based; settings: red cells of human, 1 h
[6] = test system: Escherichia coli ATCC 25922; assay: microbe, parasite or virus in culture; format: cell-based; settings: for MIC, EC: ATCC 25922, 20 h
C. glabrata ATCC 2001 = format: cell-based, Candida glabrata; settings: ATCC 2001, 48 h
C. tropicalis ATCC 13803 = format: cell-based, Candida tropicalis; settings: ATCC 13803, 48 h
S. aureus USA300 biofilm = assay: Disruption of 24-h preformed biofilms; format: cell-based, Staphylococcus aureus; settings: linezolid in the presence of 1.56 μM temporin-1OLa versus antibiotic alone, XTT
S. aureus USA300 = assay: Checkerboard synergy of peptide and antibiotics; format: cell-based, Staphylococcus aureus; settings: in combination with temporin-1OLa

Compound	MIC, PA [1] [µM]	MIC, KP [2] [µM]	MIC, BS (Bacillus subtilis 168) [µM]	MIC, C. albicans [3] [µM]	MIC, SA [4] [µM]	HL50 (peptide concentration that causes 50% hemolysis) [5] [µM]	MIC, EC [6] [µM]	MIC, C. glabrata (C. glabrata ATCC 2001) [µM]	MIC, C. tropicalis (C. tropicalis ATCC 13803) [µM]	disruption of 24 h established biofilms by combination (S. aureus USA300 biofilm)	combined effect with the peptide (S. aureus USA300)	MIC ([1]; Pseudomonas aeruginosa, read-out: MIC, PA) [µM]	MIC ([2]; Klebsiella pneumoniae, ATCC13883, 20 h, read-out: MIC, KP) [µM]	MIC (Bacillus subtilis 168; Bacillus subtilis, 168, 20 h, read-out: MIC, BS) [µM]	MIC ([4]; Staphylococcus aureus, MRSA|USA300, 20 h, read-out: MIC, SA) [µM]	MIC ([6]; Escherichia coli, ATCC25922, 20 h, read-out: MIC, EC) [µM]
FLSAITSILGKFF [temporin-1SPa]	>50	>50	12.5	25	6.3	37.5	>50	25	6.2	–	–	–	–	–	–	–
FLPLLASLFSRLF [temporin-1Oc]	>50	>50	12.5	25	–	<12.5	>50	25	1.6 to 3.1	–	–	–	–	–	–	–
SILPTIVSFLSKVF [temporin-1Ga]	>50	>50	6.3	12.5	3.1	12.5	>50	12.5	3.1	–	–	–	–	–	–	–
IPPFIKKVLTTVF [temporin-CPa]	>50	50	50	25	≥25	–	12.5	12.5	3.1 to 6.2	–	–	–	–	–	–	–
FLPIVGRLISGIL [temporin-CPb]	>50	>50	25 to 50	50	12.5	–	>50	>50	6.2 to 12.5	–	–	–	–	–	–	–
CC(=O)NC[C@H]1CN(c2ccc(N3CCOCC3)c(F)c2)C(=O)O1 [linezolid]	–	–	–	–	–	–	–	–	–	reduce biofilms more effectively	additive effect	–	–	–	–	–
CN[C@H](CC(C)C)C(=O)N[C@H]1C(=O)N[C@@H](CC(N)=O)C(=O)N[C@H]2C(=O)N[C@H]3C(=O)N[C@H](C(=O)N[C@H](C(=O)O)c4cc(O)cc(O)c4-c4cc3ccc4O)[C@H](O)c3ccc(c(Cl)c3)Oc3cc2cc(c3O[C@@H]2O[C@H](CO)[C@@H](O)[C@H](O)[C@H]2O[C@H]2C[C@](C)(N)[C@H](O)[C@H](C)O2)Oc2ccc(cc2Cl)[C@H]1O [Vancomycin, vancomycin hydrochloride, reference compound]	–	–	–	–	–	–	–	–	–	–	–	> 50	> 50	> 3.1	0.78	> 50
